# Laboratory results: publication PMC3758588, “Development of an Ultrasensitive Immunoassay for Detecting Tartrazine” (Sensors (Basel, Switzerland), 2013)
# System: monoclonal antibody 1F3 (mAb 1F3)
# Assay: indirect competitive ELISA against Tar-OVA coating antigen
# Assay type: binding, Mus musculus
structure (smiles),measurement,value
"O=C(O)c1nn(-c2ccc(S(=O)(=O)O)cc2)c(O)c1/N=N/c1ccc(S(=O)(=O)O)cc1 [Tartrazine, trisodium 5-hydroxy-1-(4-sulfonatophenyl)-4-(4-sulfonatophenylazo)-H-pyrazol-3-carboxylate]",IC50,0.105 ng/mL
